Measurements as given in patent US12421232B2, “Kinase inhibitor compounds and compositions and methods of use” (ICAHN SCHOOL OF MEDICINE AT MOUNT SINAI, priority 2018, dated 2025).
Like-named read-outs stand apart in the source and are kept apart here.

Key:
Test in all cases: KINOMEscan Assay (DiscoverX)
Type in all cases: binding
Conditions in all cases: read-out: % DMSO Ctrl
[1] = target: T1, RPS6KA4(Kin.Dom.2-C-terminal) (Homo sapiens, UniProt O75676)
T1 construct: Kin.Dom.2; purchased DiscoverX

EGFR(G719C) = target: T2, EGFR(G719C) (Homo sapiens, UniProt P00533, G719C)
T2 construct: purchased DiscoverX

CAMK2B = target: T3, CAMK2B (Homo sapiens, UniProt Q13554)
T3 construct: purchased DiscoverX

ADCK4 = target: T4, ADCK4 (Homo sapiens, UniProt Q96D53)
T4 construct: purchased DiscoverX
T4 sequence (Q96D53 1-544): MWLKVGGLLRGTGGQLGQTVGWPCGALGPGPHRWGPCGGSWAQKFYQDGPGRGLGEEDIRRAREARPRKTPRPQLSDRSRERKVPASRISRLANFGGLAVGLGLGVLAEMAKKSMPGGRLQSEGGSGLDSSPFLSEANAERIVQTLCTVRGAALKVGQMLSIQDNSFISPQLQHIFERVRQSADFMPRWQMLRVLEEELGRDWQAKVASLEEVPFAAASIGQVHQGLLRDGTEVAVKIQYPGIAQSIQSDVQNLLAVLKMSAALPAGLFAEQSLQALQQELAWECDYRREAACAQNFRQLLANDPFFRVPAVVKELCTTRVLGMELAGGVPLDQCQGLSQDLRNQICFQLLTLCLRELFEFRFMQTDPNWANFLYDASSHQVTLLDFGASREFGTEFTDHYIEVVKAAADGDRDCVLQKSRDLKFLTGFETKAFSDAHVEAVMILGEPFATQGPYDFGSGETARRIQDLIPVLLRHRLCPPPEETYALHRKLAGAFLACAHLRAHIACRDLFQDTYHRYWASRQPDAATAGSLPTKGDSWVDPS

FLT3-autoinhibited = target: T5, FLT3-autoinhibited (Homo sapiens, UniProt P36888)
T5 construct: purchased DiscoverX
T5 sequence (P36888 564-993 limits assumed): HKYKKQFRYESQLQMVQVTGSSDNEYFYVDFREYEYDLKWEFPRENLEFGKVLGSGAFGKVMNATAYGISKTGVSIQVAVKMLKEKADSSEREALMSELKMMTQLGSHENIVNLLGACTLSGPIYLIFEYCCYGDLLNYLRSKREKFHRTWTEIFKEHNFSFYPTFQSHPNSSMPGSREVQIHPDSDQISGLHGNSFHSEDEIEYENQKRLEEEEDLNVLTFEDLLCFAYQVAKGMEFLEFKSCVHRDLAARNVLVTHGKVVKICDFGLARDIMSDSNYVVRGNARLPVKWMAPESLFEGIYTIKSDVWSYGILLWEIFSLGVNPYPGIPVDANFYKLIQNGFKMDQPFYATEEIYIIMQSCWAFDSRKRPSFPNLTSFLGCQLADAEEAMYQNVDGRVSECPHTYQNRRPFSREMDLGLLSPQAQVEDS

CLK3 = target: T6, CLK3 (Homo sapiens, UniProt P49761)
T6 construct: purchased DiscoverX

KIT(L576P) = target: T7, KIT(L576P) (Homo sapiens, UniProt P10721, L576P)
T7 construct: purchased DiscoverX

PIP5K2C = target: T8, PIP5K2C (Homo sapiens, UniProt Q8TBX8)
T8 construct: purchased DiscoverX
T8 sequence (Q8TBX8 1-421): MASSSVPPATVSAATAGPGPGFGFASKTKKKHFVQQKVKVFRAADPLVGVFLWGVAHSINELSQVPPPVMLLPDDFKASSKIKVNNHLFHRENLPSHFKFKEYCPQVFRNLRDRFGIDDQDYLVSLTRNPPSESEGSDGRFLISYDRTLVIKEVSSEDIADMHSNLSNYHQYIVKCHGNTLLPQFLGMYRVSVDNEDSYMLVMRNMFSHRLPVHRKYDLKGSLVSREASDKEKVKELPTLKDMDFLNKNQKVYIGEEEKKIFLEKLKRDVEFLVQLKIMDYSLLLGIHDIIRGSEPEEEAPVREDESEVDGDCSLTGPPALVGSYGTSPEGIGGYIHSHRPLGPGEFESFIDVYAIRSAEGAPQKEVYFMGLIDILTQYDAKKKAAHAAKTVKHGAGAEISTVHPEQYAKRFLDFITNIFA

T2 sequence (P00533 25-1210 G719C): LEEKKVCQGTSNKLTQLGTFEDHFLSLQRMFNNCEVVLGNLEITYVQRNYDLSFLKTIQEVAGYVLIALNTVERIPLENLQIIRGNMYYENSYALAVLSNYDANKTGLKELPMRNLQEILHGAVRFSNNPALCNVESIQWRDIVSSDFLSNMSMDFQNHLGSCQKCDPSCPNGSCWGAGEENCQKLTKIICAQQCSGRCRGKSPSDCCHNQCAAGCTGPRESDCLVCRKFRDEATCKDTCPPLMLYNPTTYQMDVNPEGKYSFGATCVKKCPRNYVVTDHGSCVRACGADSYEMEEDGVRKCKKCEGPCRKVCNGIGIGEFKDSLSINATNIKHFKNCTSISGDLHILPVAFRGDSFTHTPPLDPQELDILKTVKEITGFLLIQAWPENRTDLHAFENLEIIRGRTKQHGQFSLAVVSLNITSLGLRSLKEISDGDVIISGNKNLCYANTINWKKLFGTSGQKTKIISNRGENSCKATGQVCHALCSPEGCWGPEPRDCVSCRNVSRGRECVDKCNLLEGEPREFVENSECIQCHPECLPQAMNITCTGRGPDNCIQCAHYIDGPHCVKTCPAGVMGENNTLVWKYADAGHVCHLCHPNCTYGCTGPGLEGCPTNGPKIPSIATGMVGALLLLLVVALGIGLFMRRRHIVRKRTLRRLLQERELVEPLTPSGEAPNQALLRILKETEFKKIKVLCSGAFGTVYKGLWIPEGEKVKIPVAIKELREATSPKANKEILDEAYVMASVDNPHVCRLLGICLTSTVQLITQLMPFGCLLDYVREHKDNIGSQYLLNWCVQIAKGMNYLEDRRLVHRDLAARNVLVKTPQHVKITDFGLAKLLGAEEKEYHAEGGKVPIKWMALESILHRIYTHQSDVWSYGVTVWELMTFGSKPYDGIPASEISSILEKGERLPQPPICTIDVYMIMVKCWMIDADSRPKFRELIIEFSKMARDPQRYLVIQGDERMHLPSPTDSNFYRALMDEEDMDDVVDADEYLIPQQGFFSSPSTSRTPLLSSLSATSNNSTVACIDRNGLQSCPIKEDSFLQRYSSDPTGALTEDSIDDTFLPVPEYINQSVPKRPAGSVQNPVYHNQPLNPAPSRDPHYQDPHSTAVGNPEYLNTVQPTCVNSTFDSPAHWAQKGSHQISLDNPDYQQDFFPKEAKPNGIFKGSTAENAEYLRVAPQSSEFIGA
T7 sequence (P10721 26-976 L576P): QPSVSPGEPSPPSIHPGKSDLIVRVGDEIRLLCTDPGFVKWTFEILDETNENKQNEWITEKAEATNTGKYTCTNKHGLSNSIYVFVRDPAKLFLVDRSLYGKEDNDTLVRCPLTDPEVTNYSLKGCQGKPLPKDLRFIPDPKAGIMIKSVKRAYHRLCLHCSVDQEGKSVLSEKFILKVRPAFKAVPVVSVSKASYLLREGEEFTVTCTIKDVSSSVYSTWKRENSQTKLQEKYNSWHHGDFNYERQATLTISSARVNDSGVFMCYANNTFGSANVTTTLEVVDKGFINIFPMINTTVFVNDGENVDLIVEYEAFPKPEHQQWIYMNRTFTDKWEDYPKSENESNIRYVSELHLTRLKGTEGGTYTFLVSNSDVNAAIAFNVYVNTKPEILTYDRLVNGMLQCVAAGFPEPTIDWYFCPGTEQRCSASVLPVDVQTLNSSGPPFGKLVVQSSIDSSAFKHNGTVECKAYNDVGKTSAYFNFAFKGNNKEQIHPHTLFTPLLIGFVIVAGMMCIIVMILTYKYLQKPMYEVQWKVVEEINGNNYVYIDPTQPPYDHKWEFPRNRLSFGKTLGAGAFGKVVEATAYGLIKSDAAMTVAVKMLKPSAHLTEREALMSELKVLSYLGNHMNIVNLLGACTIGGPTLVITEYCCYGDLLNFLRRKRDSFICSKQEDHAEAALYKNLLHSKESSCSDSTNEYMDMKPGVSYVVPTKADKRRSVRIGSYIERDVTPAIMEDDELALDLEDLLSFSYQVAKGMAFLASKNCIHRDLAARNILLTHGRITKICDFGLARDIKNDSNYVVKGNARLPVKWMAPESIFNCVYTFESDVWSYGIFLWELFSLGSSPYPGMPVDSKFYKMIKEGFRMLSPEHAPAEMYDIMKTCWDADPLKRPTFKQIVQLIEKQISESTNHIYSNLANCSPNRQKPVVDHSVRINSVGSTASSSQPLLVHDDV
T6 sequence (P49761 whole entry): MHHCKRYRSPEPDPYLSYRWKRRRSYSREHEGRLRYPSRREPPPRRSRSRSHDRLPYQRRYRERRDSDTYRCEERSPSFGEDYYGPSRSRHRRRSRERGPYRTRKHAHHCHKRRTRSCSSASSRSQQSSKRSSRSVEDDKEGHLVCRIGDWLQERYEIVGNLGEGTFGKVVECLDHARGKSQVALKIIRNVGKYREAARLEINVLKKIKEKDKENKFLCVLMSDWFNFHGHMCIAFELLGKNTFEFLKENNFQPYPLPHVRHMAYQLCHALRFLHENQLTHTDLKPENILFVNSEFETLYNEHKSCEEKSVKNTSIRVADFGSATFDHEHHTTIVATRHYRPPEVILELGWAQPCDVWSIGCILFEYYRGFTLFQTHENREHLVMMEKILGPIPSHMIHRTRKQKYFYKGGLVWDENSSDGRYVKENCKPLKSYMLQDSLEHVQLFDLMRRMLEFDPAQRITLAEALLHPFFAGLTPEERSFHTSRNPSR
T1 sequence (O75676 411-674 limits assumed): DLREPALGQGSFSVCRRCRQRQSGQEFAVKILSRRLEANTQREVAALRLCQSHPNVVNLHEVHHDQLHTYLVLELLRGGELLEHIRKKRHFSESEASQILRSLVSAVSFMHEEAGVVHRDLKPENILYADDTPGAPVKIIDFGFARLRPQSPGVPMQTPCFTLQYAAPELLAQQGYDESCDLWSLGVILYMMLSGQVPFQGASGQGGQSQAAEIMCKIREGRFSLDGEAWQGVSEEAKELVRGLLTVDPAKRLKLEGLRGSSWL
T3 sequence (Q13554 whole entry): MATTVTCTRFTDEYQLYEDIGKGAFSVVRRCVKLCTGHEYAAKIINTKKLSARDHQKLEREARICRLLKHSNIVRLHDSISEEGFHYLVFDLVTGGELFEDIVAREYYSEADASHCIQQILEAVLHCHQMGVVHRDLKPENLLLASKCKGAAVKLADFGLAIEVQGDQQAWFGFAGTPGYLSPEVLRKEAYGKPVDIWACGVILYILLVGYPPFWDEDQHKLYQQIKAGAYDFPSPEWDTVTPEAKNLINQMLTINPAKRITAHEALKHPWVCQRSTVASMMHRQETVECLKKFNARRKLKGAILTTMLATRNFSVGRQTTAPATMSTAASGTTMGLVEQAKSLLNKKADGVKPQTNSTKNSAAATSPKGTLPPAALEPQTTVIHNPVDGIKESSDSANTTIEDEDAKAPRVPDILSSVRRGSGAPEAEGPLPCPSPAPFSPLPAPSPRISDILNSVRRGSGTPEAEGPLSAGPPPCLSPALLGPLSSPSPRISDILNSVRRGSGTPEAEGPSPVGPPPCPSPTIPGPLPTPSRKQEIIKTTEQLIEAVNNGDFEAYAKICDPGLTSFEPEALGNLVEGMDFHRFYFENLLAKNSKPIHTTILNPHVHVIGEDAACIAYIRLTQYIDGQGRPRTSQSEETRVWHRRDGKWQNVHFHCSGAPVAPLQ

SMILES	remaining binding at 10 µM ([1]; RPS6KA4(Kin.Dom.2-C-terminal), 10 μM)	remaining binding at 10 µM (EGFR(G719C); EGFR(G719C) mutant, 10 μM)	remaining binding at 10 µM (CAMK2B; CAMK2B, 10 μM)	remaining binding at 10 µM (ADCK4; ADCK4, 10 μM)	remaining binding at 10 µM (FLT3-autoinhibited; FLT3-autoinhibited, 10 μM)	remaining binding at 10 µM (CLK3; CLK3, 10 μM)	remaining binding at 10 µM (KIT(L576P); KIT(L576P) mutant, 10 μM)	remaining binding at 10 µM (PIP5K2C; PIP5K2C, 10 μM)	remaining binding at 10 µM [1]	remaining binding at 10 µM (EGFR(G719C))	remaining binding at 10 µM (CAMK2B)	remaining binding at 10 µM (ADCK4)	remaining binding at 10 µM (FLT3-autoinhibited)	remaining binding at 10 µM (CLK3)	remaining binding at 10 µM (KIT(L576P))	remaining binding at 10 µM (PIP5K2C)
COc1ccc2c(c1)[nH]c1c(C)nc(CO)cc12 [Compound 2-8, (1-Methyl-7-methoxy-9H-pyrido[3,4-b]indol-3-yl)methanol]	1%	98%	42%	84%	100%	36%	94%	5%	–	–	–	–	–	–	–	–
COc1ccc2c3ccnc(C)c3n(CCCc3noc(N)n3)c2c1 [Compound 20-13, 3-(3-(7-Methoxy-1-methyl-β-carbolin-9-yl)propyl)-5-amino-1,2,4-oxadiazole]	–	–	–	–	–	–	–	–	85%	93%	69%	100%	85%	54%	100%	13%
C#CCn1c2cc(OC)ccc2c2ccnc(C)c21 [Compound 20-23a, 3-(7-Methoxy-1-methyl-β-carbolin-9-yl)-propan-1-yne]	–	–	–	–	–	–	–	–	55%	92%	3%	9.3%	100%	19%	74%	41%
